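How tested: cells in 96-well plates exposed to compound for 48 hours at five concentrations. TGI: concentration producing complete growth inhibition.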
Columns and labels:
Test in all cases: growth of human tumour cells (NCI), 48 h
A549 NSCLC = system: A549 NSCLC
SNB-75 CNS = system: SNB-75 CNS
RPMI-8226 leukemia = system: RPMI-8226 leukemia
KM20L2 colon = system: KM20L2 colon
UO-31 renal = system: UO-31 renal
EKVX NSCLC = system: EKVX NSCLC
SW-620 colon = system: SW-620 colon
UACC-257 melanoma = system: UACC-257 melanoma
SNB-78 CNS = system: SNB-78 CNS
SN12C renal = system: SN12C renal
CCRF-CEM leukemia = system: CCRF-CEM leukemia
HCT-15 colon = system: HCT-15 colon
HT29 colon = system: HT29 colon
SF-295 CNS = system: SF-295 CNS
HOP-18 NSCLC = system: HOP-18 NSCLC
ACHN renal = system: ACHN renal
HCT-116 colon = system: HCT-116 colon
SF-539 CNS = system: SF-539 CNS
HOP-92 NSCLC = system: HOP-92 NSCLC
M19-MEL melanoma = system: M19-MEL melanoma
A498 renal = system: A498 renal
SF-268 CNS = system: SF-268 CNS
IGROV1 ovarian = system: IGROV1 ovarian
HOP-62 NSCLC = system: HOP-62 NSCLC
M14 melanoma = system: M14 melanoma
MALME-3M melanoma = system: MALME-3M melanoma
HL-60(TB) leukemia = system: HL-60(TB) leukemia
HCC-2998 colon = system: HCC-2998 colon
LOX IMVI melanoma = system: LOX IMVI melanoma
DMS 273 small cell lung = system: DMS 273 small cell lung
NCI-H460 lung = system: NCI-H460 lung
LXFL 529 NSCLC = system: LXFL 529 NSCLC
K-562 leukemia = system: K-562 leukemia
SK-OV-3 ovarian = system: SK-OV-3 ovarian
786-0 renal = system: 786-0 renal
UACC-62 melanoma = system: UACC-62 melanoma
SK-MEL-28 melanoma = system: SK-MEL-28 melanoma
KM12 colon = system: KM12 colon
OVCAR-3 ovarian = system: OVCAR-3 ovarian
U251 CNS = system: U251 CNS
TK-10 renal = system: TK-10 renal
SK-MEL-5 melanoma = system: SK-MEL-5 melanoma
SK-MEL-2 melanoma = system: SK-MEL-2 melanoma
CAKI-1 renal = system: CAKI-1 renal
OVCAR-5 ovarian = system: OVCAR-5 ovarian
DMS 114 small cell lung = system: DMS 114 small cell lung
NCI-H522 lung = system: NCI-H522 lung
MOLT-4 leukemia = system: MOLT-4 leukemia
DLD-1 colon = system: DLD-1 colon
NCI-H23 lung = system: NCI-H23 lung
OVCAR-8 ovarian = system: OVCAR-8 ovarian
SR leukemia = system: SR leukemia
OVCAR-4 ovarian = system: OVCAR-4 ovarian
SNB-19 CNS = system: SNB-19 CNS
COLO 205 colon = system: COLO 205 colon
NCI-H226 lung = system: NCI-H226 lung
RXF 393 renal = system: RXF 393 renal
XF 498 CNS = system: XF 498 CNS

## C=CCN(C)CN(C)c1nc(N(C)C)nc(N(C)C)n1
A549 NSCLC
  TGI: > 100 µM
SNB-75 CNS
  TGI: > 100 µM
RPMI-8226 leukemia
  TGI: > 100 µM
KM20L2 colon
  TGI: > 100 µM
UO-31 renal
  TGI: > 100 µM
EKVX NSCLC
  TGI: > 100 µM
SW-620 colon
  TGI: > 100 µM
UACC-257 melanoma
  TGI: > 100 µM
SNB-78 CNS
  TGI: > 100 µM
SN12C renal
  TGI: > 100 µM
CCRF-CEM leukemia
  TGI: > 100 µM
HCT-15 colon
  TGI: > 100 µM
HT29 colon
  TGI: > 100 µM
SF-295 CNS
  TGI: > 100 µM
HOP-18 NSCLC
  TGI: > 100 µM
ACHN renal
  TGI: > 100 µM
HCT-116 colon
  TGI: > 100 µM
SF-539 CNS
  TGI: > 100 µM
HOP-92 NSCLC
  TGI: > 100 µM
M19-MEL melanoma
  TGI: > 100 µM
A498 renal
  TGI: > 100 µM
SF-268 CNS
  TGI: > 100 µM
IGROV1 ovarian
  TGI: > 100 µM
HOP-62 NSCLC
  TGI: > 100 µM
M14 melanoma
  TGI: > 100 µM
MALME-3M melanoma
  TGI: > 100 µM
HL-60(TB) leukemia
  TGI: 48.7 µM
HCC-2998 colon
  TGI: > 100 µM
LOX IMVI melanoma
  TGI: > 100 µM
DMS 273 small cell lung
  TGI: > 100 µM
NCI-H460 lung
  TGI: > 100 µM
LXFL 529 NSCLC
  TGI: 89 µM
K-562 leukemia
  TGI: > 100 µM
SK-OV-3 ovarian
  TGI: > 100 µM
786-0 renal
  TGI: > 100 µM
UACC-62 melanoma
  TGI: > 100 µM
SK-MEL-28 melanoma
  TGI: > 100 µM
KM12 colon
  TGI: > 100 µM
OVCAR-3 ovarian
  TGI: > 100 µM
U251 CNS
  TGI: > 100 µM
TK-10 renal
  TGI: > 100 µM
SK-MEL-5 melanoma
  TGI: > 100 µM
SK-MEL-2 melanoma
  TGI: > 100 µM
CAKI-1 renal
  TGI: > 100 µM
OVCAR-5 ovarian
  TGI: > 100 µM
DMS 114 small cell lung
  TGI: 42.7 µM
NCI-H522 lung
  TGI: 51.5 µM
MOLT-4 leukemia
  TGI: > 100 µM
DLD-1 colon
  TGI: > 100 µM
NCI-H23 lung
  TGI: > 100 µM
OVCAR-8 ovarian
  TGI: > 100 µM
SR leukemia
  TGI: > 100 µM
OVCAR-4 ovarian
  TGI: > 100 µM
SNB-19 CNS
  TGI: > 100 µM
COLO 205 colon
  TGI: > 100 µM

## OC(c1ccccn1)C1CNc2ccccc21 (stereo unspecified)
A549 NSCLC
  TGI: > 100 µM
SNB-75 CNS
  TGI: > 100 µM
RPMI-8226 leukemia
  TGI: > 100 µM
NCI-H226 lung
  TGI: > 100 µM
KM20L2 colon
  TGI: > 100 µM
UO-31 renal
  TGI: > 100 µM
EKVX NSCLC
  TGI: > 100 µM
SW-620 colon
  TGI: > 100 µM
UACC-257 melanoma
  TGI: > 100 µM
SNB-78 CNS
  TGI: > 100 µM
SN12C renal
  TGI: > 100 µM
CCRF-CEM leukemia
  TGI: > 100 µM
HCT-15 colon
  TGI: > 100 µM
RXF 393 renal
  TGI: > 100 µM
HT29 colon
  TGI: > 100 µM
SF-295 CNS
  TGI: > 100 µM
ACHN renal
  TGI: > 100 µM
HCT-116 colon
  TGI: > 100 µM
SF-539 CNS
  TGI: > 100 µM
HOP-92 NSCLC
  TGI: > 100 µM
M19-MEL melanoma
  TGI: > 100 µM
A498 renal
  TGI: > 100 µM
SF-268 CNS
  TGI: > 100 µM
IGROV1 ovarian
  TGI: > 100 µM
HOP-62 NSCLC
  TGI: > 100 µM
M14 melanoma
  TGI: > 100 µM
MALME-3M melanoma
  TGI: > 100 µM
HL-60(TB) leukemia
  TGI: > 100 µM
HCC-2998 colon
  TGI: > 100 µM
LOX IMVI melanoma
  TGI: > 100 µM
DMS 273 small cell lung
  TGI: > 100 µM
NCI-H460 lung
  TGI: > 100 µM
LXFL 529 NSCLC
  TGI: > 100 µM
K-562 leukemia
  TGI: > 100 µM
SK-OV-3 ovarian
  TGI: > 100 µM
786-0 renal
  TGI: > 100 µM
UACC-62 melanoma
  TGI: > 100 µM
SK-MEL-28 melanoma
  TGI: > 100 µM
KM12 colon
  TGI: > 100 µM
OVCAR-3 ovarian
  TGI: > 100 µM
U251 CNS
  TGI: > 100 µM
XF 498 CNS
  TGI: > 100 µM
TK-10 renal
  TGI: > 100 µM
SK-MEL-5 melanoma
  TGI: > 100 µM
SK-MEL-2 melanoma
  TGI: > 100 µM
CAKI-1 renal
  TGI: > 100 µM
OVCAR-5 ovarian
  TGI: > 100 µM
DMS 114 small cell lung
  TGI: > 100 µM
NCI-H522 lung
  TGI: > 100 µM
MOLT-4 leukemia
  TGI: > 100 µM
DLD-1 colon
  TGI: > 100 µM
NCI-H23 lung
  TGI: > 100 µM
OVCAR-8 ovarian
  TGI: > 100 µM
OVCAR-4 ovarian
  TGI: > 100 µM
SNB-19 CNS
  TGI: > 100 µM
COLO 205 colon
  TGI: > 100 µM

## CC(=O)Nc1ccc(C(=O)NN2C(=O)C(Cl)C2c2ccccc2O)cc1 (stereo unspecified)
A549 NSCLC
  TGI: > 100 µM
SNB-75 CNS
  TGI: 78.9 µM
NCI-H226 lung
  TGI: > 100 µM
KM20L2 colon
  TGI: > 100 µM
UO-31 renal
  TGI: > 100 µM
EKVX NSCLC
  TGI: > 100 µM
SW-620 colon
  TGI: > 100 µM
UACC-257 melanoma
  TGI: > 100 µM
SN12C renal
  TGI: > 100 µM
CCRF-CEM leukemia
  TGI: > 100 µM
HCT-15 colon
  TGI: > 100 µM
RXF 393 renal
  TGI: 61 µM
HT29 colon
  TGI: > 100 µM
SF-295 CNS
  TGI: > 100 µM
ACHN renal
  TGI: > 100 µM
HCT-116 colon
  TGI: > 100 µM
SF-539 CNS
  TGI: > 100 µM
HOP-92 NSCLC
  TGI: > 100 µM
A498 renal
  TGI: > 100 µM
SF-268 CNS
  TGI: > 100 µM
IGROV1 ovarian
  TGI: > 100 µM
HOP-62 NSCLC
  TGI: 41.6 µM
M14 melanoma
  TGI: > 100 µM
MALME-3M melanoma
  TGI: > 100 µM
HL-60(TB) leukemia
  TGI: > 100 µM
LOX IMVI melanoma
  TGI: 48.9 µM
DMS 273 small cell lung
  TGI: > 100 µM
NCI-H460 lung
  TGI: > 100 µM
LXFL 529 NSCLC
  TGI: > 100 µM
K-562 leukemia
  TGI: > 100 µM
SK-OV-3 ovarian
  TGI: > 100 µM
786-0 renal
  TGI: > 100 µM
UACC-62 melanoma
  TGI: > 100 µM
SK-MEL-28 melanoma
  TGI: > 100 µM
OVCAR-3 ovarian
  TGI: 90.3 µM
U251 CNS
  TGI: > 100 µM
XF 498 CNS
  TGI: > 100 µM
TK-10 renal
  TGI: > 100 µM
SK-MEL-5 melanoma
  TGI: > 100 µM
SK-MEL-2 melanoma
  TGI: > 100 µM
CAKI-1 renal
  TGI: > 100 µM
OVCAR-5 ovarian
  TGI: > 100 µM
NCI-H522 lung
  TGI: > 100 µM
DLD-1 colon
  TGI: > 100 µM
NCI-H23 lung
  TGI: 78.3 µM
OVCAR-8 ovarian
  TGI: > 100 µM
OVCAR-4 ovarian
  TGI: > 100 µM
SNB-19 CNS
  TGI: > 100 µM
COLO 205 colon
  TGI: > 100 µM

## Cc1ccc2[nH]c3c(ncc4[nH]c5ccccc5c43)c2c1
A549 NSCLC
  TGI: 32.7 µM
SNB-75 CNS
  TGI: 28.5 µM
RPMI-8226 leukemia
  TGI: 44.3 µM
NCI-H226 lung
  TGI: 30.4 µM
KM20L2 colon
  TGI: 31.8 µM
UO-31 renal
  TGI: 30.3 µM
EKVX NSCLC
  TGI: 29.3 µM
SW-620 colon
  TGI: 26.7 µM
UACC-257 melanoma
  TGI: 33.2 µM
SNB-78 CNS
  TGI: 32.6 µM
SN12C renal
  TGI: 30.2 µM
CCRF-CEM leukemia
  TGI: 35.9 µM
RXF 393 renal
  TGI: 27.2 µM
HT29 colon
  TGI: 24 µM
SF-295 CNS
  TGI: 30.9 µM
HOP-18 NSCLC
  TGI: 28.1 µM
ACHN renal
  TGI: 30.3 µM
HCT-116 colon
  TGI: 30.8 µM
SF-539 CNS
  TGI: 30.7 µM
SF-268 CNS
  TGI: 32.4 µM
IGROV1 ovarian
  TGI: 29.6 µM
HOP-62 NSCLC
  TGI: > 10 µM
M14 melanoma
  TGI: 35.8 µM
MALME-3M melanoma
  TGI: 33.7 µM
HL-60(TB) leukemia
  TGI: 36.3 µM
HCC-2998 colon
  TGI: 30.2 µM
LOX IMVI melanoma
  TGI: 31.6 µM
NCI-H460 lung
  TGI: 30.6 µM
LXFL 529 NSCLC
  TGI: 33.3 µM
K-562 leukemia
  TGI: 30.2 µM
SK-OV-3 ovarian
  TGI: 25.2 µM
786-0 renal
  TGI: 31.5 µM
UACC-62 melanoma
  TGI: 31.7 µM
SK-MEL-28 melanoma
  TGI: 32 µM
KM12 colon
  TGI: 29.6 µM
OVCAR-3 ovarian
  TGI: > 10 µM
U251 CNS
  TGI: 28 µM
XF 498 CNS
  TGI: 35.8 µM
TK-10 renal
  TGI: 37.6 µM
SK-MEL-2 melanoma
  TGI: 33.6 µM
CAKI-1 renal
  TGI: 31.6 µM
OVCAR-5 ovarian
  TGI: 30.8 µM
DMS 114 small cell lung
  TGI: 31.3 µM
NCI-H522 lung
  TGI: 39.6 µM
MOLT-4 leukemia
  TGI: 35.2 µM
DLD-1 colon
  TGI: 31 µM
NCI-H23 lung
  TGI: > 10 µM
OVCAR-8 ovarian
  TGI: 35.9 µM
OVCAR-4 ovarian
  TGI: 37.9 µM
SNB-19 CNS
  TGI: 31.6 µM
COLO 205 colon
  TGI: 34.3 µM
